# Test results as given in patent US20090048173A1, “Use Of Dipyridamole For Treatment Of Resistance To Platelet Inhibitors” (priority 2004, published 2009).
# Entries after “also recorded” stand apart in the source; their conditions may differ.
# How the values were obtained:
# platelet aggregability = details: aspirin resistant or aspirin semiresponders; literature 2001-2004; cited from earlier work
# platelets = test: Platelet aggregation, conventional aggregometry, in blood of aspirin/clopidogrel resistant stroke/TIA patients pretreated in vitro with dipyridamole; format: cell-based, human; details: for Platelet aggregation 5 μM ADP: baseline 65.5 ± 6.3; for Platelet aggregation Collagen 1 μM / Platelet aggregation Arachidonic Acid 0.75 μM: non-responder blood, 45 min; for Platelet aggregation Collagen 1 μM: baseline 65.9 ± 8.9; for Platelet aggregation Arachidonic Acid 0.75 μM: baseline 72.5 ± 9.5
# Method: (§1) Aspirin/clopidogrel resistance is defined by lack of platelet inhibition after one month of mono- or combination therapy. Lack of platelet inhibition is defined when 4 out of the following 5 parameters are met: ADP-induced platelet aggregation remains >60%; collagen-induced aggregation >70%; whole blood aggregation >18 ohms; expression of GP IIb/IIIa >220 log MFI; and P-selectin cell positivity >8%.
# (§2) Experiments are done (blood is incubated) with dipyridamole 2 μM/L and 4 μM/L.
# (§3) Twenty ml of blood were collected from each participant, divided into 3 parts, and 2 parts were incubated for 45 min with 2 μM/L and 4 μM/L of Dipyridamole. This concentration corresponds to the physiological Dipyridamole concentration in plasma achieved 0.8-12 hours after oral administration of Aggrenox (25 mg of aspirin+200 mg of Dipyridamole). The third portion was incubated with the vehicle and served as internal control.
# (§4) Patients on other antithrombotic agents including COX inhibitors, and NSAID were excluded. Blood samples were pretreated with dipyridamole (2 mkg/ml, 4 mkg/ml), simulating the therapeutic range, and then incubated for 45 minutes at 37° C. Platelets were assessed by conventional (1 μM collagen, 0.75 μM arachidonic acid, and 5 μM ADP), and whole blood (1 mg/ml collagen) aggregometry; the expression of GP IIb/IIIa, P-selectin, annexin V binding, intact (SPAN12), and cleaved (WEDE15) PAR-1 thrombin receptors by flow cytometry. Markers of TR (D-Dimer, Thrombin-Antithrombin-III Complexes, and Prothrombin Fragment F1+2) were measured in the autologous plasma samples by ELISA.
# [1] = test system: Thrombin receptor (PAR-1); test: Flow cytometry: intact (SPAN12) and cleaved (WEDE15) PAR-1 thrombin receptors on platelets; format: cell-based, human; details: for Thrombin receptor (PAR-1) WEDE 15 (epitope of cleaved receptors) / Thrombin receptor (PAR-1) SPAN 12 (epitope of intact receptor): non-responder blood, 45 min; for Thrombin receptor (PAR-1) WEDE 15 (epitope of cleaved receptors): baseline 20.2 ± 3.4; for Thrombin receptor (PAR-1) SPAN 12 (epitope of intact receptor): baseline 31.6 ± 6.4
# Method: as §1, §2, §3, §4
# GP IIb/IIIa = test: Flow cytometry: platelet expression of CD41a (GP IIb/IIIa); format: cell-based, human; details: for Flow-cytometry CD41a (GP IIb), MFI: non-responder blood, 45 min, baseline 429.0 ± 52.1
# Method: as §1, §2, §3, §4
# P-selectin = test: Flow cytometry: platelet expression of CD62p (P-selectin); format: cell-based, human; details: non-responder blood, 45 min, baseline 10.0 ± 1.8
# Method: as §1, §2
# as §3, with “The third portion was incubated with the vehicle and served as internal control.” left out
# as §4, with “Blood samples were pretreated with dipyridamole (2 mkg/ml, 4 mkg/ml), simulating the therapeutic range, and then incubated for 45 minutes at 37° C.” left out
# thrombin generation = test: Thrombin generation markers in autologous plasma by ELISA; format: cell-based, human; details: for Prothrombin fragment F1 + 2 / Thrombin-antithrombin III Complex / Thrombin generation markers D-dimer: non-responder blood, 45 min; for Prothrombin fragment F1 + 2: baseline 1.9 ± 1.0; for Thrombin-antithrombin III Complex: baseline 3.2 ± 1.1; for Thrombin generation markers D-dimer: baseline 325.0 ± 84.6
# Method: as §1, §2, §3, §4
# [2] = ESPS-2; J Neurol Sci. 1996; Neurology 1998; cited from earlier work
# [3] = test system: Annexin V binding sites on platelets; test: Flow cytometry: Annexin V binding on platelets; format: cell-based, human; details: for Annexin V binding (PS % positive cells): non-responder blood, 45 min, baseline 9.5 ± 2.7
# Method: as §1, §2, §3, §4
# [4] = DIP in vitro, 2 and 4 mkg/ml, blood of AR patients, listed as DIP
# [5] = addition of DIP in vitro in AR patients
# [6] = Dipyridamole 4 μg/ml, p = 0.022
smiles,measurement,setting,value
"CC(=O)Oc1ccccc1C(=O)O [ASA, acetylsalicylic acid]",patients treated with ASA who did not show appropriate reduction in platelet aggregability,platelet aggregability,up to 30%
"OCCN(CCO)c1nc(N2CCCCC2)c2nc(N(CCO)CCO)nc(N3CCCCC3)c2n1 [Dipyridamole, 2,6-bis(diethanolamino)-4,8-dipiperidino-pyrimido[5,4-d]pyrimidine]",Platelet aggregation / aggregometry (in words),platelets; [4],not affected; also recorded: not changed
same,Platelet aggregation 5 μM ADP,"platelets; non-responder blood (n = 20) incubated 45 min at 37° C. with Dipyridamole 2 μg/ml, p = 0.13",63.6 ± 6.8%
same,Platelet aggregation 5 μM ADP,"platelets; non-responder blood (n = 20) incubated 45 min at 37° C. with Dipyridamole 4 μg/ml, p = 0.66",63.8 ± 6.8%
same,Platelet aggregation Collagen 1 μM,"platelets; Dipyridamole 2 μg/ml, p = 0.13",64.2 ± 7.4%
same,Platelet aggregation Arachidonic Acid 0.75 μM,"platelets; Dipyridamole 2 μg/ml, p = 0.41",71.4 ± 7.3
same,Platelet aggregation Collagen 1 μM,"platelets; Dipyridamole 4 μg/ml, p = 0.38",64.2 ± 6.9%
same,Platelet aggregation Arachidonic Acid 0.75 μM,"platelets; Dipyridamole 4 μg/ml, p = 0.12",70.6 ± 6.2
same,PAR-1 receptors (in words),[1]; [5],sustained blockade
same,expression of intact PAR-1 receptor (in words),[1]; after incubation with 2 mkg/ml and 4 mkg/ml of dipyridamole (p=0.02 and p=0.024),diminished expression
same,Thrombin receptor (PAR-1) WEDE 15 (epitope of cleaved receptors),"[1]; Dipyridamole 2 μg/ml, p = 0.0507",18.4 ± 3.1
same,Thrombin receptor (PAR-1) SPAN 12 (epitope of intact receptor),"[1]; Dipyridamole 2 μg/ml, p = 0.02",27.8 ± 5.4
same,Thrombin receptor (PAR-1) WEDE 15 (epitope of cleaved receptors),[1]; [6],18.1 ± 3.0
same,Thrombin receptor (PAR-1) SPAN 12 (epitope of intact receptor),"[1]; Dipyridamole 4 μg/ml, p = 0.024",29.1 ± 5.5
same,activity of the cleaved PAR-1 (in words),"[1]; only after incubation with 4 mkg/ml, statistically significant (p=0.022)",decreased activity
same,GP IIb/IIIa (in words),GP IIb/IIIa; [5],sustained blockade
same,"Flow-cytometry CD41a (GP IIb), MFI","GP IIb/IIIa; Dipyridamole 2 μg/ml, p = 0.12",417.6 ± 49.5 MFI
same,"Flow-cytometry CD41a (GP IIb), MFI","GP IIb/IIIa; Dipyridamole 4 μg/ml, p = 0.22",419.4 ± 49.1 MFI
same,"Flow-cytometry CD62p (P-selectin), % +","P-selectin; Dipyridamole 2 μg/ml, p = 0.308",9.4 ± 2.8 % +
same,"Flow-cytometry CD62p (P-selectin), % +","P-selectin; Dipyridamole 4 μg/ml, p = 0.21",9.4 ± 2.4 % +
same,TG markers / TR markers (in words),thrombin generation; [4],not affected; also recorded: not changed
same,Prothrombin fragment F1 + 2,"thrombin generation; Dipyridamole 2 μg/ml, p = 0.17",1.8 ± 1.0 nM/L
same,Thrombin-antithrombin III Complex,"thrombin generation; Dipyridamole 2 μg/ml, p = 0.49",3.2 ± 1.2 µg/L
same,Thrombin generation markers D-dimer,"thrombin generation; Dipyridamole 2 μg/ml, p = 0.55",316.1 ± 90.1 µg/L
same,Prothrombin fragment F1 + 2,"thrombin generation; Dipyridamole 4 μg/ml, p = 0.41",1.8 ± 0.9 nM/L
same,Thrombin-antithrombin III Complex,"thrombin generation; Dipyridamole 4 μg/ml, p = 0.24",3.1 ± 1.2 µg/L
same,Thrombin generation markers D-dimer,"thrombin generation; Dipyridamole 4 μg/ml, p = 0.48",310.8 ± 83.8 µg/L
same,reduction of stroke risk,[2],as effective as low-dose aspirin
same,annexin V binding (in words),"[3]; after incubation with 2 mkg/ml and 4 mkg/ml of dipyridamole (p=0.031 and p=0.02), listed as DIP",diminished; also recorded: sustained blockade
same,Annexin V binding sites compared to pre-incubation,"[3]; incubation of cells with DIP, patients with anti-platelet therapy resistance, e.g. ASA or clopidogrel resistance",significant reduction
same,Annexin V binding (PS % positive cells),"[3]; Dipyridamole 2 μg/ml, p = 0.031",7.9 ± 2.3 % positive cells
same,Annexin V binding (PS % positive cells),[3]; [6],7.7 ± 1.9 % positive cells
